Measurements taken from patent publication US20090012148A1, “REDUCING CELLULAR CHOLESTEROL LEVELS AND/OR TREATING OR PREVENTING PHOSPHOLIPIDOSIS” (priority 2005, published 2009).

Key:
CT60 cells [1] = experiment: Toxicity assay by cell count (Hoechst 33258); type: cell-based, Chinese hamster
Experimental: To measure toxicity, we treated CT60 and CT43 cells with compounds at 5, 10 and 20 μM for 24 h. The cell number per well was compared to control cells treated with DMSO (FIG. 7). […] Compound 1-a-14 did cause a 50% reduction in cell number at 10 μM for CT60 and an 80% reduction for CT43 cells. Compounds 1-a-4, 5, 6, 8 and 13 were partially toxic as indicated by 20-30% reduction in cell number after 24 h at 10 μM. Procedure Using Cell Count Assay: Compounds were added to CT60 and CT43 cells plated in 384 well plates at 0 (DMSO solvent control), 5, 10 and 20 μM concentrations in quadruplicate using methods similar to the dose dependence assay, except that the cells were stained with Hoechst 33258 nuclear stain. The final DMSO concentration in each well was 0.2%. For the control cells an equivalent amount of DMSO was added to the cells. The cells were incubated for 24, 48 and 72 h. After each time period, cells were washed and then fixed with 1.5% PFA. After washing the cells three times with PBS, the nuclei of the cells were stained using 5 μg/ml Hoechst 33258 (25 mg/ml stock solution in DMSO) in PBS for 45 m at room temperature. Finally, cells were washed three times with PBS, and images were obtained using a Nikon 4× Plan Apo 0.2NA objective. For Hoechst imaging we used the same filter set as for filipin. We collected one 520×696 pixel image per well at 12 intensity bits per pixel. Each pixel is 3.125 by 3.125 μm in […] the object. Cells were counted by defining the standard area of single nuclei (˜200 μm^2) interactively for each plate using the Integrated Morphometry Analysis function of MetaMorph. The number of standard areas per object above a threshold was determined, and the total number of standard areas per image was used as the cell count. The percent reduction in the number of cells compared to DMSO control was calculated for each concentration and time.

CT60 cells [2] = experiment: Filipin binding assay, LSO compartment ratio (dose dependence, time course); type: cell-based, Chinese hamster
Source text: Although the intensity assay was potentially useful, it seemed that additional information in the images could provide better discrimination of wild type vs. NPC cells. For this purpose, we took advantage of the spatial distribution of the filipin labeling of the LSOs, which cluster near the nucleus (FIG. 1B). We applied the second, higher threshold for this bright cluster. We then measured the total fluorescence intensity in the selected LSO objects (high threshold, FIG. 2C) divided by the total number of pixels in cells (low threshold, FIG. 2D).
Image analysis: Images of filipin-stained cells were analyzed using Metamorph Discovery-1 image analysis software. Two different image analysis assays were developed: (1) Average filipin intensity assay and (2) LSO compartment ratio assay. First, to correct for shading an image was created by averaging all of the images from a plate and smoothing the averaged image using a low pass filter. Then each pixel in an image was multiplied by the average intensity of the shading image, and the resulting pixel intensities were divided by the shading image on a pixel-by-pixel basis. Background was subtracted from each shading-corrected image by determining the 5th percentile intensity value of the image and subtracting this value from each pixel in the image. At the plating density used, all fields had at least 5% of the imaged areas that was cell-free. Next, two different thresholds were applied to the filipin images. For the first, a low threshold was set to include all areas occupied by cells. […] A second, higher threshold was set for brightly stained regions in CT60 and/or CT43 cells by selecting bright areas of filipin staining, with the intention of mainly identifying the LSOs in the perinuclear region of the cells. For the Average filipin intensity assay, using the low threshold alone, we measured total filipin intensity above the low threshold divided by the number of pixels above the lower threshold for each field. This gave an average filipin intensity per cell area. For the LSO compartment ratio we measured the total filipin intensity selectively in the region above the higher threshold divided by the number of pixels in the lower threshold. This gave a measure of the total intensity of LSO filipin per cell area.
Dose Dependence: Using the same methods as for the screening, compounds were tested at 10 μM, 3.33 μM, 1.11 μM, 370 nM and 123 nM in four wells each. Batches of selected compounds were purchased from Chemical Diversity, and 10 mM stocks in DMSO were made. A secondary stock plate of 2× concentration (20 μM, 6.66 μM, 2.22 μM, 740 nM and 246 nM) of compounds was prepared in screening medium S. To obtain the final concentrations, […] of this secondary stock was added to the cells in each well containing 30 μl of growth medium A supplemented with 10% FBS. The final DMSO concentration (0.2% v/v) was the same in all wells. Cells were plated at 650 cells per well in 30 μl of growth medium A supplemented with 10% FBS in Costar 384 well plates. After 20 h of incubation in the presence of the compounds, cells were washed with PBS, fixed with PFA and stained with filipin as described for the screening assay. Dose dependence determination of the initial 14 hit compounds from the primary library was done at least 5 times in CT60 cells and 3 times in CT43 cells in separate experiments. Dose dependence determination of the 7 hit compounds from the secondary library was carried out at least 3 times in CT60 cells and 2 times in CT43 cells in separate experiments.
The effects of the compounds were determined at 1.11, 3.33 and 10 μM concentrations after 4, 20 and 48 h using methods similar to the dose dependence. The CT60 cells were seeded in three 384 well plates at 600 cells/well in growth medium on day 1. To maintain the same density of cells at the final time point, compounds were added chronologically. […]

CCOc1cccc2cc(-c3csc(Nc4cccc(C(F)(F)F)c4)n3)c(=O)oc12 [Compound 1-a-14]
reduction in cell number (CT60 cells [1]; 10 μM, 24 h): 50%
shape of dose-response curve (CT60 cells [2]; 123 nM to 10 μM): unusual dose-response curve

CCN(CC)c1ccc(C=C2SC(=S)N(c3ccc(OC)cc3)C2=O)cc1 [Compound 2-a-3]
Cell Count After 24 h @ 10 μM dose Fraction of Control (CT60 cells [1]; 10 μM): 1.00 Fraction of Control
decrease in the LSO compartment ratio after 4 hr treatment (CT60 cells [2]; 4 hr, 1.1, 3.3 and 10 μM tested): more than 3 SD
Lowest Effective Dose (LSO Assay) (−3 SD @ 20 h) (CT60 cells [2]): 3.33 µM

COc1ccccc1Nc1nc(Nc2ccccc2OC)nc(Nc2ccccc2OC)n1 [Compound 2-a-9]
Cell Count After 24 h @ 10 μM dose Fraction of Control (CT60 cells [1]; 10 μM): 0.90 Fraction of Control
effect below solvent control at 123 nM (CT60 cells [2]): 2 SD
Lowest Effective Dose (LSO Assay) (−3 SD @ 20 h) (CT60 cells [2]): 370 µM

FC(F)(F)COc1nc(NN=Cc2cccc(I)c2)nc(N(c2ccccc2)c2ccccc2)n1 [Compound 2-a-12]
Cell Count After 24 h @ 10 μM dose Fraction of Control (CT60 cells [1]; 10 μM): 0.67 Fraction of Control
reduction in the number of cells (CT60 cells [1]; 20 μM, 24 h): 75%
effect below solvent control at 123 nM (CT60 cells [2]): 2 SD
Lowest Effective Dose (LSO Assay) (−3 SD @ 20 h) (CT60 cells [2]): 370 µM

O=[N+]([O-])c1cccc(C=NNc2nc(Nc3cccc4ccccc34)nc(N(c3ccccc3)c3ccccc3)n2)c1 [Compound 2-a-13]
Cell Count After 24 h @ 10 μM dose Fraction of Control (CT60 cells [1]; 10 μM): 1.00 Fraction of Control
Lowest Effective Dose (LSO Assay) (−3 SD @ 20 h) (CT60 cells [2]): 370 µM

C=CCN1C(=O)C(=Cc2cc(C)n(-c3ccccc3)c2C)C(C(=O)OC)=C1C [Compound 2-a-15]
Cell Count After 24 h @ 10 μM dose Fraction of Control (CT60 cells [1]; 10 μM): 0.94 Fraction of Control
Lowest Effective Dose (LSO Assay) (−3 SD @ 20 h) (CT60 cells [2]): 3.33 µM
